From ChEMBL document CHEMBL1201862, “PubChem BioAssay data set” (2004)
The source made the active and inactive calls.

Columns and labels:
[1] = cytotoxicity in BJeHLT fibroblasts, dose response, counter-screen for Ras selective lethality project, BJeHLT cells, dry powder (AID 493052); format: functional, cell-based; conditions: Homo sapiens
[2] = viability loss in HRASV12 DRD fibroblasts, dose response, cell-based, DRD BJ fibroblasts, dry powder (AID 493049); format: functional
[3] = viability loss in BJeLR (HRASV12) cells, primary screen, Ras selective lethality project, cell-based, Alamar Blue, dry powder (AID 493045); format: functional
[4] = cytotoxicity in BJeH fibroblasts, dose response, counter-screen for Ras selective lethality project, BJeH cells, dry powder (AID 493054); format: functional, cell-based
Coagulation factor XII = target: T1, Coagulation factor XII (Homo sapiens, UniProt P00748); format: functional;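 also: activated factor XIIa alpha cleaving a fluorogenic AMC peptide substrate; inhibitor potency from loss of enzyme activity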
T1 sequence (P00748 whole entry): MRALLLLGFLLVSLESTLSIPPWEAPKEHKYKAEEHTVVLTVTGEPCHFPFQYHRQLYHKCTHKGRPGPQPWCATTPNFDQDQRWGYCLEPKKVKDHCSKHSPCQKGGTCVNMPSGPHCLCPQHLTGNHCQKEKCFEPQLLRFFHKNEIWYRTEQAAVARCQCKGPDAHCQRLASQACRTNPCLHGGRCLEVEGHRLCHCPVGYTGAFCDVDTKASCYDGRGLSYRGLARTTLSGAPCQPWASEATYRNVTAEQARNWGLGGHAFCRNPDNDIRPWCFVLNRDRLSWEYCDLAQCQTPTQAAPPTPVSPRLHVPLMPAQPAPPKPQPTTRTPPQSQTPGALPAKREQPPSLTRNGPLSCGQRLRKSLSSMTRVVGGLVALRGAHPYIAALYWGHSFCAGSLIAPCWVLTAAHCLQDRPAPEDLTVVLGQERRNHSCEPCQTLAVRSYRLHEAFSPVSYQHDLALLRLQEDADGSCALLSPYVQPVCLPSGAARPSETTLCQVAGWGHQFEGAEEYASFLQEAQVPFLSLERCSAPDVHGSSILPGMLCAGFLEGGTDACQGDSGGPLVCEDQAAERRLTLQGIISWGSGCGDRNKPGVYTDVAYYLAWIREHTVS

[5] = target: T2, Mannose-6-phosphate isomerase (Homo sapiens, UniProt P34949); assay: PMI enzyme inhibitors, confirmation, biochemical, fluorescence intensity (AID 1535)
T2 sequence (P34949 whole entry): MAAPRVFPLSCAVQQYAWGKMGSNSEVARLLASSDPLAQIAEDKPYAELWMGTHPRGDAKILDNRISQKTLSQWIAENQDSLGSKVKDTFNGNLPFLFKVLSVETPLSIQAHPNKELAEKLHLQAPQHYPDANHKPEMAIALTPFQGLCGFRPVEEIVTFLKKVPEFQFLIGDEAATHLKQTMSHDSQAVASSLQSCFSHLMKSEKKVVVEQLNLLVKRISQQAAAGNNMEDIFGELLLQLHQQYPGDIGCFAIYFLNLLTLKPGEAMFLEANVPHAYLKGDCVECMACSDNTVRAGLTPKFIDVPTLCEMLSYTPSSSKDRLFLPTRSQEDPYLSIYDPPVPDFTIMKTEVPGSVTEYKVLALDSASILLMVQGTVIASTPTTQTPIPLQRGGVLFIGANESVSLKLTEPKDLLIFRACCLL

Phosphomannomutase 2 = Phosphomannomutase 2 (Homo sapiens, UniProt O15305); assay: Counter screen SAR assay for PMM2 inhibitors via a fluorescence intensity assay. [Related pubchem assays (depositor defined):AID1545, AID1574]
Cytochrome P450 3A4 = Cytochrome P450 3A4 (Homo sapiens, UniProt P08684);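 also: CYP3A4 tested as one member of a cytochrome P450 panel screen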
Cytochrome P450 2D6 = Cytochrome P450 2D6 (Homo sapiens, UniProt P10635);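 also: CYP2D6 member of a cytochrome P450 panel assay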
Cytochrome P450 1A2 = target: T3, Cytochrome P450 1A2 (Homo sapiens, UniProt P05177);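 also: PubChem cytochrome P450 panel assay, CYP1A2 panel member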
T3 sequence (P05177 whole entry): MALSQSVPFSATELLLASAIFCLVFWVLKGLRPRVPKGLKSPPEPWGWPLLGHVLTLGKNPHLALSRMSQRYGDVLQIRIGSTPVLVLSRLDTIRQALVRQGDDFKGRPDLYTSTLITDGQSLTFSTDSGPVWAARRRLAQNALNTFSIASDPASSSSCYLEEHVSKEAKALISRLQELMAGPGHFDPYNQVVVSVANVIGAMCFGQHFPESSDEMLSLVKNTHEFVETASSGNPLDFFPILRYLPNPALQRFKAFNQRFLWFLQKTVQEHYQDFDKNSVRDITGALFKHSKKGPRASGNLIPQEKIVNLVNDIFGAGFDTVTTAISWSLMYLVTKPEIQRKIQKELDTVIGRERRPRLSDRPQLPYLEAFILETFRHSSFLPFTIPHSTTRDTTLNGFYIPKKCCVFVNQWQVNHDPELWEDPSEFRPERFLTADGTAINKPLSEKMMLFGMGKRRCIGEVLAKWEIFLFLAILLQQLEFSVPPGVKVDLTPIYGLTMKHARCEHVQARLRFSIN

Cytochrome P450 2C19 = Cytochrome P450 2C19 (Homo sapiens, UniProt P33261); assay: Cytochrome panel assay with activity outcomes. Panel member name: p450-cyp2c19 Compounds with AC50 equal or less than 10 uM are considered active; format: functional
Chain of Cytochrome P450 2C19 (P33261 whole entry): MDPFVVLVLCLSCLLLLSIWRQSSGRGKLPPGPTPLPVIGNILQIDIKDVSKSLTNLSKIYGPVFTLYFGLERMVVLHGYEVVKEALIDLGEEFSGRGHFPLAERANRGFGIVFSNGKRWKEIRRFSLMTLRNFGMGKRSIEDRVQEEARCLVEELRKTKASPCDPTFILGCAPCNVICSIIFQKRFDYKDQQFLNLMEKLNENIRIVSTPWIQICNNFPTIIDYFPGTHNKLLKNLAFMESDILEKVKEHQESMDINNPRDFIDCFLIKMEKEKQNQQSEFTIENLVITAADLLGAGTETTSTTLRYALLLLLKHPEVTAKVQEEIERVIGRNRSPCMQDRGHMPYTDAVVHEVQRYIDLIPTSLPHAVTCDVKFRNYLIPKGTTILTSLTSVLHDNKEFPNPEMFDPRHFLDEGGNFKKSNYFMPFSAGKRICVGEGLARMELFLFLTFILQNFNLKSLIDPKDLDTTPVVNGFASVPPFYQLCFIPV

Chain of Phosphomannomutase 2 (O15305 whole entry): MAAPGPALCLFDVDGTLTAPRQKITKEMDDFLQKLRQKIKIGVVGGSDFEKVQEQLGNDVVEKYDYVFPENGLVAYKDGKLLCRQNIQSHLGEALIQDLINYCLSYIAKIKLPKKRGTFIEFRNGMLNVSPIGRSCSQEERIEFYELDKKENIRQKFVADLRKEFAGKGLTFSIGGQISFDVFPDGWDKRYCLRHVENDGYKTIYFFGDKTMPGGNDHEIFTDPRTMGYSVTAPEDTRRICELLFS
Chain of Cytochrome P450 2D6 (P10635 whole entry): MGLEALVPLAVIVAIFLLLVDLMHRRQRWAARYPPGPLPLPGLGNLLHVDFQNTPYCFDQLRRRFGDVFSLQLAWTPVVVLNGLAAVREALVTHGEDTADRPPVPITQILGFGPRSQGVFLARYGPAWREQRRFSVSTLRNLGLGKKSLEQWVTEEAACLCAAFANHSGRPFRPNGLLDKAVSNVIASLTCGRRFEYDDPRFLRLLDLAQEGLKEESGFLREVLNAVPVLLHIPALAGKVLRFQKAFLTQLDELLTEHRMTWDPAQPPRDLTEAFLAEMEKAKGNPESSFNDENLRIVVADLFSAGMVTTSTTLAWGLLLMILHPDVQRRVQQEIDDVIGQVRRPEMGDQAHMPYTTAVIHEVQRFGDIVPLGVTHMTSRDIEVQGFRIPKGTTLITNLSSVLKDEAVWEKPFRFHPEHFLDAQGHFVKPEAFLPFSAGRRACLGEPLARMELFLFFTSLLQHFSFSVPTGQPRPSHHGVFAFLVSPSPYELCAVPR
Chain of Cytochrome P450 3A4 (P08684 whole entry): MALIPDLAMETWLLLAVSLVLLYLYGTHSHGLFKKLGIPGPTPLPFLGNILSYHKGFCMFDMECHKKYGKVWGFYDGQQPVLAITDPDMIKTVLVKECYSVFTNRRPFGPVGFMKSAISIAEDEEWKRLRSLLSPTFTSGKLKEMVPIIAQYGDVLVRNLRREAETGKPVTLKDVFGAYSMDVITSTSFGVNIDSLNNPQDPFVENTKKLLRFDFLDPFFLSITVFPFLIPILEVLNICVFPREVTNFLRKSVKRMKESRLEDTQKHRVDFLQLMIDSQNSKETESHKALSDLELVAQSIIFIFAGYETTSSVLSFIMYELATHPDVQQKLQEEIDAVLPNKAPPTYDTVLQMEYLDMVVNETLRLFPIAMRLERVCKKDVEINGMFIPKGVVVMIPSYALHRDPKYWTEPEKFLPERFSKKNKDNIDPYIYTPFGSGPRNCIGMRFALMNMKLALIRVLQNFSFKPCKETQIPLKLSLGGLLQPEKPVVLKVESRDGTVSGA

SMILES	AC50 [1]	AC50 [2]	AC50 [3]	AC50 [4]	IC50 (Coagulation factor XII)	also measured
COc1ccc(N(C(=O)CCl)C(C(=O)NC2CCCCC2)c2cccs2)cc1Cl (stereo unspecified)	0.27 µM (active)	0.12 µM (active)	0.113 µM (active)	0.455 µM (active)		
CC(=O)Nc1nonc1NC(=O)CSc1ccccn1					> 50 µM (inactive)	
Cc1ccc(/N=c2\ssnc2Cl)nc1						IC50 [5]: > 100 µM (inactive); IC50 (Phosphomannomutase 2): > 100 µM (inactive)
COc1ccc(N(C(=O)CCl)C(C(=O)NCn2nnc3ccccc32)c2cccs2)cc1Cl (stereo unspecified)	0.242 µM (active)	0.097 µM (active)	0.102 µM (active)	0.432 µM (active)		
CCOc1cc(/C=N/n2cnnc2)cc(Br)c1O					> 50 µM (inactive)	
O=C([O-])Cc1ccccc1Nc1c(Cl)cccc1Cl.[Na+] [DICLOFENAC SODIUM]						AC50 (Cytochrome P450 3A4): inconclusive; AC50 (Cytochrome P450 2D6): inactive; AC50 (Cytochrome P450 1A2): inactive; AC50 (Cytochrome P450 2C19): inactive
